# Tests used:
# IDO1 = molecular target: T1, IDO1 (Homo sapiens, UniProt P14902); test: Hela cell-based functional assay of IDO1 inhibition (kynurenine read at 480 nm); details: Hela cells, 100 ng/mL human IFN-γ, 18 h; averages ±SD of two parallel experiments
# T1 construct: host or cells: HeLa cells stimulated with 100 ng/mL human IFN-γ
# Procedure: Based on a comprehensive review of the literature, we employed a Hela cell-based functional assay to investigate the IDO1 inhibition activities of the designed compounds.
# To assess the inhibitory effect of the designed compounds against IDO1, Hela cells were seeded at 50,000–60,000 cells per well in 100 μL of complete Dulbecco’s modified eagle medium growth medium in a 96-well plate and incubated for 12–18 h. On the second day, diluted inhibitor at a final concentration of 100 ng/mL human IFN-γ was added (100 μL per well) and incubated at 37°C with 5% CO2 for 18 h. On the third day, 140 μL of medium was transferred into a new 96-well plate, and the protein was precipitated with 10 μL of 6.1 N trichloroacetic acid (CCl3COOH) at 50°C for 30 min. The plate was then centrifuged at 2,500 rpm for 10 min, and 100 μL of supernatant was transferred to another 96-well plate and mixed with 100 μL of 2% (w/v) p-dimethylaminobenzaldehyde in CH3COOH. The plate was incubated at 25°C for 10 min, and the yellow color derived from kynurenine was measured at 480 nm using a microplate reader (PE, United States). Inhibition curves with IC50 values were generated using Prism 6.0.
# [1] = test system: melanin-concentrating hormone; design: method as in McBriar et al., 2006; details: melanin-concentrating hormone antagonist; ref McBriar et al., 2006; cited from earlier work
# Staphylococcus aureus = test system: Staphylococcus aureus; design: method as in Babu et al., 2015; details: ref Babu et al., 2015; cited from earlier work
# [2] = test system: laryngeal squamous carcinoma cells; design: method as in Khanet al.; details: ref Khanet al.; cited from earlier work
# pancreatic cancer cells = test system: pancreatic cancer cells; design: method as in Khanet al.; details: ref Khanet al.; cited from earlier work
# HIV-1 protease = test system: HIV-1 protease; design: method as in The Lipton laboratory; details: ref The Lipton laboratory; cited from earlier work
# T1 sequence (P14902 whole entry): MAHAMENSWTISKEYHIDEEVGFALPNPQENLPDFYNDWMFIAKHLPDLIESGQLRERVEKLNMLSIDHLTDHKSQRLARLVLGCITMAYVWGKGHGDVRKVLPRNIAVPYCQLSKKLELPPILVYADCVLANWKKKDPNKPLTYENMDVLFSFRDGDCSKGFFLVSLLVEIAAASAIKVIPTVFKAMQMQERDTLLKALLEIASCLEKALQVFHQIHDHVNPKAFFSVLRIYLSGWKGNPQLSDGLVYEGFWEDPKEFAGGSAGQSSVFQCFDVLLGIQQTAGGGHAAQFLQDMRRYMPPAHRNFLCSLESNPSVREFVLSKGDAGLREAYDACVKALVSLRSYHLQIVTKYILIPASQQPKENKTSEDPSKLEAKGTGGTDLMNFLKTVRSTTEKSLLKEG
IC50 (IDO1) [µM],SMILES,also measured
3.97,"Cc1ccc(-c2csc3nnc(SCC(=O)Nc4ccc5c(c4)OCO5)n23)cc1 [Amg-1, reference compound]",
> 20,"COc1ccc(NC(=O)NCc2cn(Cc3ccccc3Br)nn2)cc1 [Compound 3a, 1-((1-(2-bromobenzyl) -1H-1,2,3-triazol-4-yl)methyl) -3-(4-methoxyphenyl) urea]",
> 20,"O=C(NCc1cn(Cc2ccccc2Br)nn1)Nc1ccc(Br)cc1 [Compound 3d, 1-((1-(2-bromobenzyl) -1H-1,2,3-triazol-4-yl)methyl) -3-(4-bromophenyl) urea]",
> 20,"O=C(NCc1cn(Cc2cccc(Br)c2)nn1)Nc1ccc(Br)cc1 [Compound 3e, 1-((1-(3-bromobenzyl) -1H-1,2,3-triazol-4-yl)methyl) -3-(4-bromophenyl) urea]",
17.9 ± 3.14,"COc1ccc(NC(=O)NC(C)(C)c2cn(Cc3ccccc3Br)nn2)cc1 [Compound 3f, 1-(2-(1-(2-bromobenzyl)-1H-1,2,3-triazol-4-yl)propan-2-yl)-3-(4-methoxyphenyl)urea]",
1.73 ± 0.97,"COc1ccc(NC(=O)NC(C)(C)c2cn(Cc3cccc(Br)c3)nn2)cc1 [Compound 3g, 1-(2-(1-(3-bromobenzyl)-1H-1,2,3-triazol-4-yl)propan-2-yl)-3-(4-methoxyphenyl)urea]",
5.82 ± 2.65,"COc1ccc(NC(=O)NC(C)(C)c2cn(Cc3cccc(OC)c3)nn2)cc1 [Compound 3h, 1-(2-(1-(3-methoxybenzyl)-1H-1,2,3-triazol-4-yl)propan-2-yl)-3-(4-methoxyphenyl)urea]",
> 20,"CC(C)(NC(=O)Nc1ccc(Br)cc1)c1cn(Cc2ccccc2Br)nn1 [Compound 3i, 1-(2-(1-(2-bromobenzyl)-1H-1,2,3-triazol-4-yl)propan-2-yl)-3-(4-bromophenyl)urea]",
> 20,"CC(C)(NC(=O)Nc1ccc(Br)cc1)c1cn(Cc2cccc(Br)c2)nn1 [Compound 3j, 1-(2-(1-(3-bromobenzyl)-1H-1,2,3-triazol-4-yl)propan-2-yl)-3-(4-bromophenyl)urea]",
,CN1CCN(CCCN(C(=O)Nc2ccc(F)c(C(F)(F)F)c2)[C@@H]2CC[C@]3(c4ccc(C#N)cc4)C[C@H]23)CC1 [Compound 7],effect on body weight [1]: effective in reducing body weight
,O=C(Nc1ccc(F)c(C(F)(F)F)c1)N1CCN(c2ncc3cc(-c4cccnc4F)ccc3n2)CC1 [Compound 8],inhibitory effect on the proliferation of Staphylococcus aureus (Staphylococcus aureus): excellent inhibitory effect
,CNc1ccccc1C(=O)NC(=O)Nc1ccc(Oc2ncc(Br)cn2)c(C)c1 [Compound 9],repression of laryngeal squamous carcinoma cells [2]: effectively repress; repression of pancreatic cancer cells (pancreatic cancer cells): effectively repress
,COC(=O)C(NC(=O)C(NC(=O)C(Cc1ccccc1)NC(=O)NC(Cc1ccccc1)NC(=O)C(C)NC(=O)C(C)N)C(C)C)C(C)C (centres unmarked) [Compound 10],inhibitory effect on HIV-1 protease (HIV-1 protease): moderate inhibitory effect
